Measured values from patent US20230121952A1 (INFLAZOME LIMITED, priority 2020, published 2023).
pIC50: −log10 of the molar value.

Key:
NLRP3 [1] = biological target: T1, NLRP3 (Homo sapiens, UniProt Q96P20); test: THP-1 cells pyroptosis assay; format: cell-based; set-up: Seed THP-1 cells (25,000 cells/well) containing 1.0 μg/ml LPS; host or cells: THP-1 cells, LPS-primed, nigericin-stimulated; details: 1.0 μg/ml LPS, compound 3 hrs, nigericin 5 μM 1 hr, resazurin readout
Procedure: THP-1 cells (ATCC #TIB-202) were grown in RPMI containing L-glutamine (Gibco #11835) supplemented with 1 mM sodium pyruvate (Sigma #S8636) and penicillin (100 units/ml)/streptomycin (0.1 mg/ml) (Sigma #P4333) in 10% Fetal Bovine Serum (FBS) (Sigma #F0804). The cells were routinely passaged and grown to confluency (˜10^6 cells/ml). On the day of the experiment, THP-1 cells were harvested and resuspended into RPMI medium (without FBS). The cells were then counted and viability (>90%) checked by Trypan blue (Sigma #T8154). Appropriate dilutions were made to give a concentration of 625,000 cells/ml. To this diluted cell solution was added LPS (Sigma #L4524) to give a […] Final Assay Concentration (FAC). 40 μl of the final preparation was aliquoted into each well of a 96-well plate. The plate thus prepared was used for compound screening.
The following method step-by-step assay was followed for compound screening. • 1. Seed THP-1 cells (25,000 cells/well) containing 1.0 μg/ml LPS in 40 μl of RPMI medium (without FBS) in 96-well, black walled, clear bottom cell culture plates coated with poly-D-lysine (VWR #734-0317) • 2. Add 5 μl compound (8 points half-log dilution, with 10 μM top dose) or vehicle (DMSO 0.1% FAC) to the appropriate wells • 3. Incubate for 3 hrs at 37° C., 5% CO2 • 4. Add 5 μl nigericin (Sigma #N7143) (FAC 5 μM) to all wells • 5. Incubate for 1 hr at 37° C., 5% CO2 • 6. At the end of the incubation period, spin plates at 300×g for 3 mins and remove supernatant • 7. Then add 50 μl of resazurin (Sigma #R7017) (FAC 100 μM resazurin in RPMI medium without FBS) and incubate plates for a further 1-2 hrs at 37° C. and 5% CO2 • 8. Plates were read in an Envision reader at Ex 560 nm and Em 590 nm • 9. IC50 data is fitted to a non-linear regression equation (log inhibitor vs response-variable slope 4-parameters) 96-well Plate Map

NLRP3 [2] = biological target: T1, NLRP3; test: Human whole blood IL-1β release assay; format: cell-based; set-up: Human whole blood in Li-heparin tubes was obtained from healthy donors; from tissue; host or cells: human whole blood from healthy volunteer donors, LPS-primed, nigericin-stimulated; details: 1 μg/ml LPS, compound 3 hrs, nigericin 10 μM 1 hr, IL-1β in supernatant (AlphaLisa), read-out: HWB IC50
Procedure: For systemic delivery, the ability to inhibit NLRP3 when the compounds are present within the bloodstream is of great importance. For this reason, the NLRP3 inhibitory activity of a number of compounds in human whole blood was investigated in accordance with the following protocol.
Human whole blood in Li-heparin tubes was obtained from healthy donors from a volunteer donor panel. • 1. Plate out 80 μl of whole blood containing 1 μg/ml of LPS in 96-well, clear bottom cell culture plate (Corning #3585) • 2. Add 10 μl compound (8 points half-log dilution with 10 μM top dose) or vehicle (DMSO 0.1% FAC) to the appropriate wells • 3. Incubate for 3 hrs at 37° C., 5% CO2 • 4. Add 10 μl nigericin (Sigma #N7143) (10 μM FAC) to all wells • 5. Incubate for 1 hr at 37° C., 5% CO2 • 6. At the end of the incubation period, spin plates at 300×g for 5 mins to pellet cells and remove 20 μl of supernatant and add to 96-well v-bottom plates for IL-1β analysis (note: these plates containing the supernatants can be stored at −80° C. to be analysed at a later date) • 7. IL-1β was measured according to the manufacturer protocol (Perkin Elmer-AlphaLisa IL-1 Kit AL220F-5000) • 8. IC50 data is fitted to a non-linear regression equation (log inhibitor vs response-variable slope 4-parameters)

T1 sequence (Q96P20 whole entry): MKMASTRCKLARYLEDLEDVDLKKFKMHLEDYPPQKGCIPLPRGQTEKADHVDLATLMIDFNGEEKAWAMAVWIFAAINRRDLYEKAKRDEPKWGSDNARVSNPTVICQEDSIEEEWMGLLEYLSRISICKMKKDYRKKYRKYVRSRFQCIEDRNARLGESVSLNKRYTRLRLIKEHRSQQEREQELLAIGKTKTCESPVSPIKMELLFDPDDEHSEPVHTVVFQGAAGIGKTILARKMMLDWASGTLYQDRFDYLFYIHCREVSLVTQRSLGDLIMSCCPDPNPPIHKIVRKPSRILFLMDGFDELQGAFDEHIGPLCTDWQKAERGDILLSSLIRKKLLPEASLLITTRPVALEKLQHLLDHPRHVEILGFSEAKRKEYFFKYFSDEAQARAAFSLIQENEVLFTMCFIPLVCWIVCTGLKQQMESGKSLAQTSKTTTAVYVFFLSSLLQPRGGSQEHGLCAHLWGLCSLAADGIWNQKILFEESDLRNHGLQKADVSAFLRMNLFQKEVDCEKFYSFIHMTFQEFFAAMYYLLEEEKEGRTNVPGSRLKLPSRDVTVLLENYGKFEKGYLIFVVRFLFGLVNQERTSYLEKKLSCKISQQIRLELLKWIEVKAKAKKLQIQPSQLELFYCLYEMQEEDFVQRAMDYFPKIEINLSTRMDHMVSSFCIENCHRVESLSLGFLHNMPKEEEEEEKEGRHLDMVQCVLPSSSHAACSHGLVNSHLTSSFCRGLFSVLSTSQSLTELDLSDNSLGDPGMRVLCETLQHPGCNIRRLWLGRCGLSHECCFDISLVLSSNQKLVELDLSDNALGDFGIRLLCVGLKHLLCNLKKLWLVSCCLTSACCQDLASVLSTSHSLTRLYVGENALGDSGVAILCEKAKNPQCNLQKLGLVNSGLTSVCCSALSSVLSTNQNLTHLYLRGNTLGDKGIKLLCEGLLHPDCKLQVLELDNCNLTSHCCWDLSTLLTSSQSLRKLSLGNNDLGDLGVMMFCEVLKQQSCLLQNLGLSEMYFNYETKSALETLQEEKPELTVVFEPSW

| SMILES | pIC50 (NLRP3 [1]) | pIC50 (NLRP3 [2]) |
| --- | --- | --- |
| Cc1cc2c(c3c1-c1ccnc(c1)OCCCN1CCC4(C1)CN(C4)S(=O)(=O)c1nnc([nH]1)N3)CCC2 [Example 4, 3-methyl-26-oxa-16λ^6-thia-11,13,14,17,22,28,34-heptazaheptacyclo-[25.3.1.1^12,15.1^17,19.1^19,22.0^2,10.0^5,9]tetratriaconta-1(30),2,4,9,12,14,27(31),28-octaene 16,16-dioxide] | ≥ 7.00 | ≥ 6.30 |
| O=S1(=O)c2nnc([nH]2)Nc2c(ccc3c2CCC3)-c2ccnc(c2)OCCCN2C[C@@H]3C[C@H]2CN31 [Example 22, (19S,21S)-27-oxa-16λ^6-thia-11,13,14,17,23,29,33-heptaazaheptacyclo-[26.3.1.1^12,15.0^2,10.0^5,9.0^17,21.0^19,23]tritriaconta-1(31),2,4,9,12,14,28(32),29-octaene-16,16-dioxide] | ≥ 5.30 | – |
| CN1CCCCOc2cc(ccn2)-c2ccc3c(c2Nc2nnc([nH]2)S(=O)(=O)N2CCC1CC2)CCC3 [Example 13, 27-methyl-22-oxa-2λ^6-thia-1,4,5,7,20,27,34-heptaazahexacyclo-[26.2.2.1^3,6.1^17,21.0^8,16.0^9,13]tetratriaconta-3,5,8,13,15,17,19,21(33)-octaene-2,2-dioxide] | ≥ 6.00 | – |
| O=S1(=O)c2nnc([nH]2)Nc2c(ccc3c2CCC3)-c2ccnc(c2)OCCCN2CCOCC23CCN1CC3 [Example 20] | ≥ 6.30 | – |
| CC(C)c1cc(F)cc2c1Nc1nnc([nH]1)S(=O)(=O)N1CC3(CCN(CCCOc4cc-2ccn4)C3)C1 [Example 24, 4-fluoro-6-(propan-2-yl)-23-oxa-13λ^6-thia-8,10,11,14,19,25,31-heptaazahexacyclo[22.3.1.1^9,12.1^14,16.1^16,19.0^2,7]hentriaconta-1(27),2(7),3,5,9,11,24(28),25-octaene-13,13-dioxide] | ≥ 7.00 | – |
| O=S1(=O)c2nnc([nH]2)Nc2c(ccc3c2CCC3)-c2ccnc(c2)OCCCN2CCC23CCN1CC3 [Example 15, 8-oxa-28λ^6-thia-4,10,23,25,26,29,34-heptaazaheptacyclo-[27.2.2.1^9,13.1^24,27.0^1,4.0^14,22.0^17,21]pentatriaconta-9(35),10,12,14,16,21,24,26-octaene-28,28-dioxide] | ≥ 7.00 | – |
| O=S1(=O)c2nnc([nH]2)Oc2c(ccc3c2CCC3)-c2ccnc(c2)OCCCN2CCC3(C2)CN1C3 [Example 23, 11,26-dioxa-16λ^6-thia-13,14,17,22,28,34-hexaazaheptacyclo-[25.3.1.1^12,15.1^17,19.1^19,22.0^2,10.0^5,9]tetratriaconta-1(30),2,4,9,12,14,27(31),28-octaene-16,16-dioxide] | ≥ 5.30 | – |
| O=S1(=O)c2nnc([nH]2)Nc2c(ccc3c2CCC3)-c2ccnc(c2)OCCCCN2CCC3(C2)CN1C3 [Example 19, 27-oxa-16λ^6-thia-11,13,14,17,22,29,35-heptaazaheptacyclo-[26.3.1.1^12,15.1^17,19.1^19,22.0^2,10.0^5,9]pentatriaconta-1(31),2,4,9,12,14,28(32),29-octaene-16,16-dioxide] | ≥ 6.30 | – |

Further lines, results first:

| pIC50 (NLRP3 [1]) | pIC50 (NLRP3 [2]) | SMILES |
| --- | --- | --- |
| ≥ 5.30 | ≥ 5.00 | CC1(C)COc2cc(ccn2)-c2ccc3c(c2Nc2nnc([nH]2)S(=O)(=O)c2cccc1c2)CCC3 [Example 8, 22,22-dimethyl-24-oxa-16 λ^6-thia-11,13,14,26,31-pentazahexacyclo-[23.3.1.1^12,15.1^17,21.0^2,10.0^5,9] hentriaconta-1(28),2,4,9,12,14,17,19,21(30),25(29),26-undecaene 16,16-dioxide] |
| ≥ 5.00 | – | CC1(C)CCOc2cc(ccn2)-c2ccc3c(c2Nc2nnc([nH]2)S(=O)(=O)c2ccn1n2)CCC3 [Example 7, 21,21-dimethyl-24-oxa-16λ^6-thia-11,13,14,20,26,30,31-heptazahexacyclo-[23.3.1.1^12,15.1^17,20.0^2,10.0^5,9]hentriaconta-1(28),2,4,9,12,14,17(30),18,25(29),26-decaene 16,16-dioxide] |
| ≥ 6.30 | ≥ 6.30 | CN1CCOc2cc(ccn2)-c2ccc3c(c2Nc2nnc([nH]2)S(=O)(=O)N2CCC1CC2)CCC3 [Example 9, 25-methyl-22-oxa-2λ^6-thia-1,4,5,7,20,25,32-heptaazahexacyclo-[24.2.2.1^3,6.1^17,21.0^8,16.0^9,13]dotriaconta-3,5,8,13,15,17,19,21(31)-octaene-2,2-dioxide] |
| ≥ 5.30 | – | CC1(C)COc2cc(ccn2)-c2ccc3c(c2Nc2nnc([nH]2)S(=O)(=O)c2ccn1n2)CCC3 [Example 6, 21,21-dimethyl-23-oxa-16λ^6-thia-11,13,14,20,25,29,30-heptazahexacyclo-[22.3.1.1^12,15.1^17,20.0^2,10.0^5,9]triaconta-1(27),2,4,9,12(30),14,17(29),18,24(28),25-decaene 16,16-dioxide] |
| ≥ 5.30 | – | O=S1(=O)c2nnc([nH]2)Nc2c(ccc3c2CCC3)-c2ccnc(c2)OCC2CN(C2)C2CCN1CC2 [Example 18, 6-oxa-26λ^6-thia-2,8,21,23,24,27,32-heptaazaheptacyclo-[25.2.2.1^2,4.1^7,11.1^22,25.0^12,20.1^15,19]tetratriaconta-7(33),8,10,12,14,19,22,24-octaene-26,26-dioxide] |
| ≥ 6.00 | – | CN(C)CC12CCCCOc3cc(ccn3)-c3ccc4c(c3Nc3nnc([nH]3)S(=O)(=O)N(CC1)C2)CCC4 (stereo not shown) [Example 21, 20-[(dimethylamino)methyl]-25-oxa-16λ^6-thia-11,13,14,17,27,32-hexaazahexacyclo[24.3.1.1^12,15.1^17,20.0^2,10.0^5,9]dotriaconta-1(29),2,4,9,12,14,26(30),27-octaene-16,16-dioxide] |
| ≥ 7.00 | ≥ 6.30 | O=S1(=O)c2nnc([nH]2)Nc2c(ccc3c2CCC3)-c2ccnc(c2)OCCN2CCC3(C2)CN1C3 [Example 3, 25-oxa-16λ^6-thia-11,13,14,17,22,27,33-heptazaheptacyclo-[24.3.1.1^12,15.1^17,19.1^19,22.0^2,10.0^5,9]tritriaconta-1(29),2,4,9,12,14,26(30),27-octaene 16,16-dioxide] |
| ≥ 6.30 | – | CN1CCCOc2cc(ccn2)-c2ccc3c(c2Nc2nnc([nH]2)S(=O)(=O)N2CC[C@H]1C2)CCC3 [Example 17, (20S)-21-methyl-25-oxa-16λ^6-thia-11,13,14,17,21,27,32-heptaazahexacyclo[24.3.1.1^12,15.1^17,20.0^2,10.0^0,9]dotriaconta-1(29),2,4,9,12,14,26(30),27-octaene-16,16-dioxide] |
| ≥ 6.00 | – | CN(C)CC12CCCCOc3cc(ccn3)-c3ccc4c(c3Nc3nnc([nH]3)S(=O)(=O)N(C1)C2)CCC4 [Example 16, 19-[(dimethylamino)methyl]-24-oxa-16λ^6-thia-11,13,14,17,26,31-hexaazahexacyclo[23.3.1.1^12,15.1^17,19.0^2,10.0^5,9]hentriaconta-1(28),2,4,9,12,14,25(29),26-octaene-16,16-dioxide] |
| ≥ 6.30 | – | CN1CCOc2cc(ccn2)-c2ccc3c(c2Nc2nnc([nH]2)S(=O)(=O)N2CC[C@H](C1)C2)CCC3 [Example 14, (20R)-22-methyl-25-oxa-16λ^6-thia-11,13,14,17,22,27,32-heptaazahexacyclo[24.3.1.1^12,15.1^17,20.0^2,10.0^5,9]dotriaconta-1(29),2,4,9,12,14,26(30),27-octaene-16,16-dioxide] |
